According to patent US20080280933A1, “BENZIMIDAZOLYL COMPOUNDS” (priority 2006, published 2008):

These compounds were tested against T1, mGluR2 receptor (metabotropic glutamate receptor 2) (Homo sapiens, UniProt Q14416) (assay: mGluR2 Potentiator Screen, FLIPR, EC10-EC20 glutamate challenge). Conditions: mGluR2 potentiator screen, Table 7; read-out: EC50.
T1 construct: expressed in transfected cells
Assay type: cell-based
Protocol: Procedure for mGluR2 Potentiator Screen NLB Methods EC10-EC20 Challenge Cell Culture and Plating:
Cells used for this screen are HEK cells stably transfected with the mGluR2 receptor (metabotropic glutamate receptor 2) and the Gα15 G protein. Clones were identified by functional activity (FLIPR). Cells are grown in growth media containing: DMEM High Glucose with Glutamine and Na Pyruvate (GIBCO), 10% (v/v) Heat inactivate FBS (GIBCO) G418 500 ug/ml (from 50 mg/ml stock) (GIBCO) and Blasticidin 3 ug/ml (from 5 mg/ml stock made in H2O) (Invitrogen).
2 days before the assay cell are trypsinized with 0.25% trysin/EDTA (GIBCO), spun down at 1000 rpm for 5 minutes, resuspended in growth media and plated on polystyrene 384 well black wall/clear bottom poly-D-lysine coated plates at a density of approximately 18,000 cells/well in a volume of 50 μL per well. One day before the assay the growth media is removed from the plates by flicking and replaced with media containing DMEM High Glucose without Glutamine and Na Pyruvate (GIBCO) and 10% (v/v) dialyzed FBS (GIBCO). The reason for the removal of glutamine the day before the assay is to minimize the amount of glutamate that will be present during the assay, as endogenous glutarnate released from the cells can reduce the fluorescent response and interfere with the FLIPR screen.
FLIPR Methods and Data Analysis:
On the day of the assay, the FLIPR assay is performed using the following methods:
The pH is adjusted to 7.4 with 1M NaOH. Prepare a 2 mM (approx.) stock solution of Fluo-4.am (Molecular Probes) dye in DMSO −22 μl DMSO per 50 ug vial (440 μL per 1 mg vial). Make a 1 mM (approx.) flou-4, PA working solution per vial by adding 22 μl of 20% pluronic acid (PA) (Molecular Probes) in DMSO to each 50 ug vial (440 μL per 1 mg vial). Prepare a 250 mM Probenecid (Sigma) stock solution by dissolving 0.71 g into 5 ml 1N NaOH and 5 ml assay buffer (for each liter of assay wash buffer). Make 4 uM (approx.) dye incubation media by adding 2.50 ug vials per 11 ml DMEM high glucose without glutamine (220 ml per 1 mg vial). Add 110 μL probenecid stock per 11 ml (2.5 mM final [concentration]). To the dye media add 3 units/ml of glutamic-pyruvic transaminase (GPT, Sigma) and 3 mM Na Pyruvate. The assay has worked with dye concentrations from 2 uM to 8 uM dye as well. To the assay buffer from drug preparation, add 1.83 mls DMSO and 400 μL. 15.8% P104 (from New Leads biology) per liter for final concentrations of 0.18% DMSO and 0.006% P104. To the assay buffer for cell washing, add probenecid in the same manner and concentration that was used for the dye media.
Remove growth media from cell plates by flicking. Add 50 μl/well dye solution. Incubate 1 hour at 37° C. and 5% CO2. Remove dye solution and wash 3 times with assay buffer+probenecid (100 μl probenecid stock per 10 ml buffer), leaving 30 μL/well assay buffer. Wait at least 10-15 minutes. Compounds and agonist challenge additions are performed with the FLIPR. The in addition is for test compounds, which are added as 15 μL of 4× [concentration] of potentiator. The second 2nd addition is 15 μL of 4× [concentration] of agonist or challenge. This achieves 1× concentration of all compounds only after 2nd addition. The 1st and 2nd additions are performed separately using the FLIPR, which give 2 different data files. Compounds are pretreated at least 30 minutes before agonist addition.
Results are analyzed by dividing the peak fluorescent value of the FLIPR response by the […] to achieve a ratio response. The ratios are then analyzed by curve fitting programs. Since potent compounds can give an inverted U dose response curve (due to effects on endogenous glutamate by the potentiators) points are deleted at concentrations higher than the concentration that gives the maximum effect. Maximum values for dose response curves (forced fitting) are derived from standards on the plate.
Compound Preparation and Glutamate Challenge: […]

T1 sequence (Q14416 19-872, species assumed): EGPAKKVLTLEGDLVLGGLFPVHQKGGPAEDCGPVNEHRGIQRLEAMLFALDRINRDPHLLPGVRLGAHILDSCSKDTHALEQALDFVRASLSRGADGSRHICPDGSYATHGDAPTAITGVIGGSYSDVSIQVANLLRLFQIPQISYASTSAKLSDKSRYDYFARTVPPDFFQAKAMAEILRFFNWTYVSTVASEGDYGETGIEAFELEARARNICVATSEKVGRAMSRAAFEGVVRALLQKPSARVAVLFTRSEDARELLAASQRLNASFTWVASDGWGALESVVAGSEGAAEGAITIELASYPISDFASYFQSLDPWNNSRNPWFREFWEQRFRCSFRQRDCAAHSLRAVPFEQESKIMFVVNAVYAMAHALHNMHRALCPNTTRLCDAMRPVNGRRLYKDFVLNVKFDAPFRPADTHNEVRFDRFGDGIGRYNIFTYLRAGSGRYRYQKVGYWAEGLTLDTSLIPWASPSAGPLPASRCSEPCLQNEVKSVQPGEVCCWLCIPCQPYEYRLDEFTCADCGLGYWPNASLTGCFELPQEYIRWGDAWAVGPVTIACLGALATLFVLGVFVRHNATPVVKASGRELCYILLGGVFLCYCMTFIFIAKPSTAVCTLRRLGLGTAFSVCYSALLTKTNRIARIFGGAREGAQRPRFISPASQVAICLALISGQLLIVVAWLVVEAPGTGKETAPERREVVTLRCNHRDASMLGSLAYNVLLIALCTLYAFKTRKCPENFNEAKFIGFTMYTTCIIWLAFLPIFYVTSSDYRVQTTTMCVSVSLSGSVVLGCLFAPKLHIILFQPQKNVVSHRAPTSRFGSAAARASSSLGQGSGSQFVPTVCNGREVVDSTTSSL

Compound	EC50
Cn1c(CN2CCC(Cc3ccccc3)C2)nc2ccccc21 (stereo not shown) [compound 158]	865 nM
CC1CC1COc1ccc(Cl)cc1C1CCN(Cc2nc3ccccc3n2CCF)CC1 (stereo not shown) [compound 200]	1550 nM
CCCCOc1ccc(Cl)cc1C1CCN(Cc2nc3ccccc3n2C2CC2)CC1 [compound 183]	1520 nM
FCCn1c(CN2CCC(c3cc(Cl)ccc3OCC3CCCO3)CC2)nc2ccccc21 (stereo not shown) [compound 210]	1040 nM
Cn1c(CN2CCC(c3cccc4ccc(C(N)=O)cc34)CC2)nc2c(Br)cccc21 [compound 170]	8090 nM

Further lines, results first:

EC50	Compound
3350 nM	COCCn1c(CN2CCC(c3cc(Cl)ccc3OCC3CCOC3)CC2)nc2ccccc21 (stereo not shown) [compound 205]
1200 nM	Cn1c(CN2CC[C@@H]3c4ccccc4CC[C@@H]3C2)nc2c(Br)cccc21 [compound 168]
3470 nM	CC(C)COc1ccc(Cl)cc1C1CCN(Cc2nc3ccccc3n2CF)CC1 [compound 177]
413 nM	CCCOc1ccc(Cl)cc1C1CCN(Cc2nc3ccccc3n2CF)CC1 [compound 221]
479 nM	CCCCOc1ccc(Cl)cc1C1CCN(Cc2nc3ccccc3n2CCOC)CC1 [compound 184]
153 nM	Cn1c(CN2CCC(c3cc(Cl)ccc3OCCC3CC3)CC2)nc2ccccc21 [compound 189]
141 nM	FCCn1c(CN2CCC(c3cc(Cl)ccc3OCCC3CC3)CC2)nc2ccccc21 [compound 190]
2260 nM	Clc1ccc(OCC2CCC2)c(C2CCN(Cc3nc4ccccc4n3C3CC3)CC2)c1 [compound 192]
1570 nM	FCn1c(CN2CCC(c3cc(Cl)ccc3OCC3CCCCO3)CC2)nc2ccccc21 (stereo not shown) [compound 215]

Same assay, conditions: read-out: EC50

Compound	EC50
COC(=O)CCCCC(=O)N1CC2(CCN(Cc3nc4ccccc4n3C)CC2)c2cc(C)ccc21 [compound 30]	4890 nM
Cn1c(CN2CCC(c3ccccc3F)CC2)nc2ccc(C#N)cc21 [Entry 275, 2-((4-(2-Fluorophenyl)piperidin-1-yl)methyl)-3-methyl-3H-benzo[d]imidazole-5-carbonitrile]	211 nM
FCn1c(CN2CCC(c3ccccc3C(F)(F)F)CC2)nc2ccccc21 [compound 256]	422 nM
2-((4-(2-Fluorophenyl)piperidin-1-yl)methyl)-1-methyl-6-phenyl-1H-benzo[d]imidazole [Entry 276]	3100 nM
Cn1c(CN2CCC3(CC2)CN(C(=O)c2ccsc2)c2ccccc23)nc2ccccc21 [compound 49]	1200 nM
Cc1noc(C)c1C(=O)N1CC2(CCN(Cc3nc4ccccc4n3C)CC2)c2cc(Cl)ccc21 [compound 39]	2830 nM
FCn1c(CN2CCC(c3ccccc3F)CC2)nc2ccccc21 [compound 253]	116 nM
CCCCN1CC2(CCN(Cc3nc4ccccc4n3C)CC2)c2cc(F)ccc21 [compound 140]	2120 nM
CN1CC2(CCN(Cc3nc4ccccc4n3C)CC2)c2ccccc21 [compound 135]	2350 nM
Cn1c(CN2CCC3(CC2)CN(C(=O)c2cccc(C#N)c2)c2ccccc23)nc2ccccc21 [compound 55]	3010 nM
COCn1c(CN2CCC(c3ccc(C(F)(F)F)cc3)CC2)nc2ccccc21 [compound 287]	1900 nM
Cn1c(CN2CCC(c3ccccc3F)CC2)nc2cc(F)ccc21 [compound 351]	87.7 nM
COc1ccc(C(F)(F)F)cc1C1CCN(Cc2nc3c(F)cccc3n2C)CC1 [compound 397]	435 nM
CCC(=O)N1CC2(CCN(Cc3nc4ccccc4n3C)CC2)c2cc(Cl)ccc21 [compound 27]	1060 nM
Cn1c(CN2CCC3(CC2)CN(C(=O)c2ccc(C#N)cc2)c2ccccc23)nc2ccccc21 [compound 56]	1750 nM
FCCn1c(CN2CCC(c3ccccc3C(F)(F)F)CC2)nc2ccccc21 [compound 243]	1260 nM
Cn1c(CN2CCC(c3ccc(F)c(Cl)c3)CC2)nc2ccccc21 [compound 443]	57 nM
Cn1c(CN2CCC(c3ccc(C(F)(F)F)cc3)C(F)C2)nc2ccccc21 (stereo not shown) [compound 441]	157 nM
Cn1c(CN2CCC(c3ccccc3F)CC2)nc2c(F)cccc21 [Entry 325, 4-Fluoro-2-((4-(2-Fluorophenyl)piperidin-1-yl)methyl)-1-methyl-1H-benzo[d]imidazole]	33.8 nM
Cn1c(CN2CCC(c3cc(F)cc(F)c3)CC2)nc2cc(Cl)ccc21 [compound 382]	7060 nM
COCCn1c(CN2CCC(c3cc(C(F)(F)F)ccc3OC)CC2)nc2ccccc21 [compound 323]	984 nM
COc1cc(F)ccc1C1CCN(Cc2nc3cccc(F)c3n2C)CC1 [compound 407]	167 nM
Cn1c(CN2CCC(O)(c3ccc(Cl)c(C(F)(F)F)c3)CC2)nc2ccccc21 [compound 71]	4350 nM
CCCCN1CC2(CCN(Cc3nc4ccccc4n3C)CC2)c2cc(Cl)ccc21 [compound 127]	2810 nM
Cn1c(CN2CCC(c3ccccc3F)CC2)nc2cc(C(C)(C)O)ccc21 [Entry 298, 2-(2-((4-(2-fluorophenyl)piperidin-1-yl)methyl)-1-methyl-1H-benzo[d]imidazol-5-yl)propan-2-ol]	> 7340 nM
Cc1ccc2c(c1)C1(CCN(Cc3nc4ccccc4n3C)CC1)CN2CC(C)C [compound 119]	2900 nM
CC(C)CN1CC2(CCN(Cc3nc4ccccc4n3C)CC2)c2cc(F)ccc21 [compound 115]	6490 nM
Cn1c(CN2CCC3(CC2)CN(C(=O)COCc2ccccc2)c2ccccc23)nc2ccccc21 [compound 58]	589 nM
Cn1c(CN2CCC3(CC2)CN(C(=O)C2CCC2)c2ccccc23)nc2ccccc21 [compound 60]	2220 nM
C[C@@H]1CN(Cc2nc3ccccc3n2C)CC[C@@H]1c1ccc(F)c(F)c1 (single isomer, unassigned) [Entry 472, 2-{[Cis-4-(3,4-Difluoro-phenyl)-3-methyl-piperidin-1-yl]methyl}-1-methyl-1H-benzoimidazole]	152 nM

Second part, the compound after the results:

EC50	Compound
115 nM	COc1ccc(Cl)cc1C1CCN(Cc2nc3ccccc3n2C)CC1 [compound 231]
43.6 nM	COc1cc(C(F)(F)F)ccc1C1CCN(Cc2nc3c(F)cccc3n2C)CC1 [compound 400]
> 3740 nM	COc1ccc(C(F)(F)F)cc1C1CCN(Cc2nc3cc(Cl)ccc3n2C)CC1 [compound 386]
1030 nM	CC(C)Oc1ccccc1C1CCN(Cc2nc3c(F)cccc3n2C)CC1 [compound 393]
308 nM	Cn1c(CN2CCC(F)(c3ccc(F)cc3)CC2)nc2ccccc21 [compound 434]
569 nM	2-[4-(2-Methoxy-phenyl)-piperidin-1-ylmethyl]-1-methyl-1H-benzoimidazole-5-carboxylic acid [Entry 288]
21.1 nM	COc1ccccc1C1CCN(Cc2nc3c(F)cccc3n2C)CC1 [compound 271]
> 4810 nM	CN1CCC[C@H]1COc1ccccc1C1CCN(Cc2nc3ccccc3n2C)CC1 [compound 98]
52 nM	COc1cc(C(F)(F)F)ccc1C1CCN(Cc2nc3cc(C#N)ccc3n2C)CC1 [compound 390]
637 nM	CCOc1ccc(Cl)cc1C1CCN(Cc2nc3ccccc3n2CF)CC1 [compound 226]
523 nM	CC(C)Oc1ccccc1C1CCN(Cc2nc3cc(C#N)ccc3n2C)CC1 [compound 402]
74.1 nM	C#CCOc1ccc(Cl)cc1C1CCN(Cc2nc3ccccc3n2CCF)CC1 [compound 236]
583 nM	COc1ccc(C(F)(F)F)cc1C1CCN(Cc2nc3cc(C#N)ccc3n2C)CC1 [compound 388]
493 nM	Cn1c(CN2CCC(c3ccc(C(F)(F)F)cc3F)CC2)nc2cc(Cl)ccc21 [compound 384]
